Key:
[1] = target: T1, CK1α (Homo sapiens, UniProt P48729+Q96SW2); assay: HiBiT degradation assay, CK1α, Procedure A; format: cell-based; settings: six hours
T1 construct: CSNK1A1-HiBit KI HEK293(LgBit) Cells; host or cells: HEK293(LgBit) knock-in cells
Procedure, shortened: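 DC50 and Ymin (% remaining) were derived by four-parameter fitting of luminescence data. The data come from a six-hour, 37° C compound exposure of cells in DMEM/10% FBS over a ten-point range, 10 μM to 0.005 μM, followed by Nano-Glo HiBiT lytic detection.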

[2] = target: GSPT1 (Homo sapiens, UniProt P15170+Q96SW2); assay: HiBiT degradation assay, GSPT1, Procedure B (Molt 4_hGSPT1_HiBIT cells); format: cell-based; parameters: Molt 4_hGSPT1_HiBIT N-terminus tagged cells were generated using CRISPR technology; endogenous in cells; host or cells: Molt 4 cells, CRISPR-edited; settings: six hours
Procedure, shortened: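 CRISPR N-terminal HiBiT-tagged Molt 4 cells at 1×10^6 cells/ml were treated 6 h at 37° C with compounds (10-point, 10 μM to 0.005 μM, 0.1% DMSO). Remaining HiBiT-GSPT1 was read by lytic luminescence; DC50 and Ymin (% remaining) from a 4-parameter fit.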

Chain of GSPT1 (P15170 whole entry): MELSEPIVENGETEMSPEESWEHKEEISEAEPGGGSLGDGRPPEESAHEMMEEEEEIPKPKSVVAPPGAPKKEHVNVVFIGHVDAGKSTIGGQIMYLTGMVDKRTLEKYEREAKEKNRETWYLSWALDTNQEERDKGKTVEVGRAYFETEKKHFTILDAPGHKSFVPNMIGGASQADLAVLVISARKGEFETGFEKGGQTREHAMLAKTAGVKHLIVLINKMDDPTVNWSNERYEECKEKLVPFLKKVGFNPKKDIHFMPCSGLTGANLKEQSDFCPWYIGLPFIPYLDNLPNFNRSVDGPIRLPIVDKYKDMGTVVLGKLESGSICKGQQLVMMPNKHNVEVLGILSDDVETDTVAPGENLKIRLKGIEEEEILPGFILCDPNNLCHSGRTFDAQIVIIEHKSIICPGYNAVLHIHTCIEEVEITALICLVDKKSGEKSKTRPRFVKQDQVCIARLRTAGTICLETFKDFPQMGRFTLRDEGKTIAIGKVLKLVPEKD
Chain of GSPT1 (Q96SW2 whole entry): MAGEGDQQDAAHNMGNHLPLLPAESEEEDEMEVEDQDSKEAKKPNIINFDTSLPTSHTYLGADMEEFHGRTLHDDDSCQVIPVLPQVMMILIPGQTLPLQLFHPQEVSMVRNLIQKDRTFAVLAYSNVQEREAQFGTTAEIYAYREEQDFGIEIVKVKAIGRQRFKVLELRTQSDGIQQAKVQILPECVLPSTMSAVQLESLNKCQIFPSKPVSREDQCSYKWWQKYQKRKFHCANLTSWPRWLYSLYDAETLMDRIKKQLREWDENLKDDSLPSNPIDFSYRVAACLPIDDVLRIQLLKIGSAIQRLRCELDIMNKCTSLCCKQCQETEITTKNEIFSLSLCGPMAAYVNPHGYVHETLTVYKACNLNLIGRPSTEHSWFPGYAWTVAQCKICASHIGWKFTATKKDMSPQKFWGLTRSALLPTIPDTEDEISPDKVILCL
Chain of GSPT1 (Q16531 whole entry partner): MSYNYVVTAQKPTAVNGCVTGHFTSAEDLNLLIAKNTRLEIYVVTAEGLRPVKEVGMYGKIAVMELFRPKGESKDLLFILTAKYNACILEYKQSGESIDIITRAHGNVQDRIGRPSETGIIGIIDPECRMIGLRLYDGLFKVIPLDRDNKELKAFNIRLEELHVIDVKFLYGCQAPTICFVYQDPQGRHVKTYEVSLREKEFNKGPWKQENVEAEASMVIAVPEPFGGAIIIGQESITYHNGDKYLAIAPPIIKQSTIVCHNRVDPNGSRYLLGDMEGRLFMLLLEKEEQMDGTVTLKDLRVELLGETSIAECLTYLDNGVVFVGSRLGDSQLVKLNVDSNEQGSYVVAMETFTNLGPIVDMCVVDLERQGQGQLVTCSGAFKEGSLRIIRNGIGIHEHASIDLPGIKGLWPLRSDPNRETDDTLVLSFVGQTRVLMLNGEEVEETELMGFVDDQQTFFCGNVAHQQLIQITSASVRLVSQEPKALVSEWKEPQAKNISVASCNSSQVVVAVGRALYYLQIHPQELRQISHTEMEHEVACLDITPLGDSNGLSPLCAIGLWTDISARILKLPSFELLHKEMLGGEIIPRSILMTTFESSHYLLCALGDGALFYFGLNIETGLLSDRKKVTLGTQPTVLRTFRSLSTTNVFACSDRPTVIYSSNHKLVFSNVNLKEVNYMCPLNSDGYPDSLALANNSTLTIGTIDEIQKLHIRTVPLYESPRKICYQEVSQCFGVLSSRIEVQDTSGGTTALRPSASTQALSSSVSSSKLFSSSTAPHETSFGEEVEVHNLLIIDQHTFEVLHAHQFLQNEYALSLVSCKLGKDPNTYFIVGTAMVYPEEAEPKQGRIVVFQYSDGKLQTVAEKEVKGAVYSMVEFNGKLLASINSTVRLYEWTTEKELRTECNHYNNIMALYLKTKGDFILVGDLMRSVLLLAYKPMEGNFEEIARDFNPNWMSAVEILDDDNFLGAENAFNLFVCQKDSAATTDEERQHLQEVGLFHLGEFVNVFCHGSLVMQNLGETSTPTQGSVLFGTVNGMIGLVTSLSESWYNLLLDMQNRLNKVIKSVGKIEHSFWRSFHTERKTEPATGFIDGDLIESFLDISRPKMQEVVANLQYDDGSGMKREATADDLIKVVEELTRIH
T1 sequence (P48729 whole entry): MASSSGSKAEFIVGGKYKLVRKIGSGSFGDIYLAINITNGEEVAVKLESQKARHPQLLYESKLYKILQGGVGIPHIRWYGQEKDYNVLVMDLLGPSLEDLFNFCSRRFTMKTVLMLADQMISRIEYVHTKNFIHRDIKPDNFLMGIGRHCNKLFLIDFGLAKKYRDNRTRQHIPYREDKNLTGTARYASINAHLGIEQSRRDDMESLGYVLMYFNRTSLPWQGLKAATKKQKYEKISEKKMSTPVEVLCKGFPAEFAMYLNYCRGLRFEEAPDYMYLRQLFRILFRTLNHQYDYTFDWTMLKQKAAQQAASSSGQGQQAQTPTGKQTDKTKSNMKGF
T1 sequence (Q96SW2 whole entry): as the sequence (Q96SW2 whole entry) above
T1 sequence (Q16531 whole entry partner): as the sequence (Q16531 whole entry partner) above

Row | SMILES | CK1α Ymin [1] | DC50 [1] [nM] | DC50 [2] [nM] | GSPT1 Ymin [2]
1 | Cn1ncc(-c2ccc3c(c2)CN(C2CCC(=O)NC2=O)C3=O)c1C1=CCNCC1 (stereo not drawn) [Example 690] | E (E = >25-75% remaining) | ≥ 25 | ≥ 25 | F (F = >75-100% remaining)
2 | Cn1cc(-c2ccc3c(c2)CN(C2CCC(=O)NC2=O)C3=O)nc1-c1ccc(F)c(F)c1 (stereo not drawn) [Example 628] | D (D = >10- 25% remaining) | < 25 | ≥ 25 | F (F = >75-100% remaining)
3 | COc1ccc(Cl)cc1-c1nc(-c2ccc3c(c2)CN(C2CCC(=O)NC2=O)C3=O)cn1C (stereo not drawn) [Example 643] | D (D = >10- 25% remaining) | < 25 | ≥ 25 | F (F = >75-100% remaining)
4 | Cn1cc(-c2ccc3c(c2)CN(C2CCC(=O)NC2=O)C3=O)nc1-c1cncc2ccccc12 (stereo not drawn) [Example 659] | E (E = >25-75% remaining) | < 25 | ≥ 25 | F (F = >75-100% remaining)
5 | Cn1cc(-c2ccc3c(c2)CN(C2CCC(=O)NC2=O)C3=O)nc1-c1ccccc1N (stereo not drawn) [Example 634] | C (C = 0-10% remaining) | < 25 | ≥ 25 | E (E = >25-75% remaining)
6 | Cn1cc(-c2ccc3c(c2)CN(C2CCC(=O)NC2=O)C3=O)nc1-c1ccc(-n2cccn2)cc1 (stereo not drawn) [Example 665] | E (E = >25-75% remaining) | < 25 | ≥ 25 | D (D = >10- 25% remaining)
7 | Cn1cc(-c2ccc3c(c2)CN(C2CCC(=O)NC2=O)C3=O)nc1-c1ccc(O)cc1 (stereo not drawn) [Example 627] | C (C = 0-10% remaining) | < 25 | ≥ 25 | E (E = >25-75% remaining)
8 | Cc1ccc(-c2nc(-c3ccc4c(c3)CN(C3CCC(=O)NC3=O)C4=O)cn2C)c(N)c1 (stereo not drawn) [Example 663] | E (E = >25-75% remaining) | < 25 | < 25 | F (F = >75-100% remaining)
9 | Cn1cc(-c2ccc3c(c2)CN(C2CCC(=O)NC2=O)C3=O)nc1-c1ccc2c(c1)CCCO2 (stereo not drawn) [Example 671] | E (E = >25-75% remaining) | < 25 | ≥ 25 | F (F = >75-100% remaining)
10 | Cn1nc(-c2ccc3c(c2)CN(C2CCC(=O)NC2=O)C3=O)nc1N1[C@@H]2CCC[C@H]1CC2 (stereo partly drawn) [Example 706, 3-(5-(5-((1R,5S)-8-azabicyclo[3.2.1]octan-8-yl)-1-methyl-1H-1,2,4-triazol-3-yl)-1-oxoisoindolin-2-yl)piperidine-2,6-dione] | D (D = >10- 25% remaining) | < 25 | ≥ 25 | F (F = >75-100% remaining)
11 | Cn1cc(-c2ccc3c(c2)CN(C2CCC(=O)NC2=O)C3=O)nc1-c1ccc(C#N)cc1F (stereo not drawn) [Example 654] | D (D = >10- 25% remaining) | < 25 | < 25 | F (F = >75-100% remaining)
12 | Cn1cc(-c2ccc3c(c2)CN(C2CCC(=O)NC2=O)C3=O)nc1-c1ccc(Cl)cc1F (stereo not drawn) [Example 644] | D (D = >10- 25% remaining) | < 25 | ≥ 25 | F (F = >75-100% remaining)
13 | Cn1cc(-c2ccc3c(c2)CN(C2CCC(=O)NC2=O)C3=O)nc1C12CCN(CC1)CC2 (stereo not drawn) [Example 719, 3-(5-(1-methyl-2-(quinuclidin-4-yl)-1H-imidazol-4-yl)-1-oxoisoindolin-2-yl)piperidine-2,6-dione] | E (E = >25-75% remaining) | ≥ 25 | ≥ 25 | F (F = >75-100% remaining)
14 | Cn1cc(-c2ccc3c(c2)CN(C2CCC(=O)NC2=O)C3=O)nc1-c1ccc(C#N)c(F)c1 (stereo not drawn) [Example 655] | E (E = >25-75% remaining) | < 25 | ≥ 25 | F (F = >75-100% remaining)
15 | Cn1cc(-c2ccc3c(c2)CN(C2CCC(=O)NC2=O)C3=O)nc1-c1ccc(F)c(Cl)c1 (stereo not drawn) [Example 645] | D (D = >10- 25% remaining) | < 25 | ≥ 25 | F (F = >75-100% remaining)
16 | Cn1cc(-c2ccc3c(c2)CN(C2CCC(=O)NC2=O)C3=O)nc1-c1cccc(OC(F)(F)F)c1 (stereo not drawn) [Example 637] | D (D = >10- 25% remaining) | < 25 | < 25 | F (F = >75-100% remaining)
17 | Cn1cc(-c2ccc3c(c2)CN(C2CCC(=O)NC2=O)C3=O)nc1-c1c[nH]c2ncccc12 (stereo not drawn) [Example 662] | E (E = >25-75% remaining) | < 25 | ≥ 25 | F (F = >75-100% remaining)
18 | Cn1cc(-c2ccc3c(c2)CN(C2CCC(=O)NC2=O)C3=O)nc1-c1ccc(N2CCOCC2)cc1 (stereo not drawn) [Example 666] | E (E = >25-75% remaining) | < 25 | ≥ 25 | F (F = >75-100% remaining)
19 | Cn1cc(-c2ccc3c(c2)CN(C2CCC(=O)NC2=O)C3=O)nc1-c1cccc(F)c1C#N (stereo not drawn) [Example 641] | C (C = 0-10% remaining) | < 25 | ≥ 25 | F (F = >75-100% remaining)

Other lines, results leading:

Row | CK1α Ymin [1] | DC50 [1] [nM] | DC50 [2] [nM] | GSPT1 Ymin [2] | SMILES
20 | E (E = >25-75% remaining) | < 25 | < 25 | F (F = >75-100% remaining) | Cn1ncc(-c2ccc3c(c2)CN(C2CCC(=O)NC2=O)C3=O)c1C1=Cc2ccccc2C1 (stereo not drawn) [Example 700]
21 | D (D = >10- 25% remaining) | < 25 | ≥ 25 | F (F = >75-100% remaining) | Cn1nc(-c2ccc3c(c2)CN(C2CCC(=O)NC2=O)C3=O)nc1N1CCC(C(F)(F)F)CC1 (stereo not drawn) [Example 707, 3-(5-(1-methyl-5-(4-(trifluoromethyl)piperidin-1-yl)-1H-1,2,4-triazol-3-yl)-1-oxoisoindolin-2-yl)piperidine-2,6-dione]
22 | C (C = 0-10% remaining) | < 25 | ≥ 25 | F (F = >75-100% remaining) | O=C1CCC(N2Cc3cc(-c4nc(C5CC5)oc4-c4ccccc4)ccc3C2=O)C(=O)N1 (stereo not drawn) [Example 734, 3-(5-(2-cyclopropyl-5-phenyloxazol-4-yl)-1-oxoisoindolin-2-yl)piperidine-2,6-dione]
23 | E (E = >25-75% remaining) | < 25 | ≥ 25 | F (F = >75-100% remaining) | Cn1ncc(-c2ccc3c(c2)CN(C2CCC(=O)NC2=O)C3=O)c1C1=CCCC1 (stereo not drawn) [Example 691]
24 | C (C = 0-10% remaining) | < 25 | ≥ 25 | F (F = >75-100% remaining) | Cn1cc(-c2ccc3c(c2)CN(C2CCC(=O)NC2=O)C3=O)nc1-c1cc(F)ccc1Cl (stereo not drawn) [Example 725]
25 | D (D = >10- 25% remaining) | < 25 | ≥ 25 | F (F = >75-100% remaining) | Cn1cc(-c2ccc3c(c2)CN(C2CCC(=O)NC2=O)C3=O)nc1-c1nn(C)c2ccccc12 (stereo not drawn) [Example 679]
26 | E (E = >25-75% remaining) | < 25 | < 25 | F (F = >75-100% remaining) | Cn1ncc(-c2ccc3c(c2)CN(C2CCC(=O)NC2=O)C3=O)c1C1=COCCC1 (stereo not drawn) [Example 695]
27 | C (C = 0-10% remaining) | < 25 | ≥ 25 | F (F = >75-100% remaining) | Cn1cc(-c2ccc3c(c2)CN(C2CCC(=O)NC2=O)C3=O)nc1-c1cccc2c1CCC2 (stereo not drawn) [Example 689]
28 | E (E = >25-75% remaining) | < 25 | < 25 | F (F = >75-100% remaining) | COc1ccc(C#N)cc1-c1nc(-c2ccc3c(c2)CN(C2CCC(=O)NC2=O)C3=O)cn1C (stereo not drawn) [Example 684]
29 | E (E = >25-75% remaining) | < 25 | ≥ 25 | F (F = >75-100% remaining) | Cn1cc(-c2ccc3c(c2)CN(C2CCC(=O)NC2=O)C3=O)nc1-c1cccc2ccccc12 (stereo not drawn) [Example 676]
30 | C (C = 0-10% remaining) | < 25 | < 25 | F (F = >75-100% remaining) | Cn1cc(-c2ccc3c(c2)CN(C2CCC(=O)NC2=O)C3=O)nc1-c1ccnc2ccccc12 (stereo not drawn) [Example 686]
31 | E (E = >25-75% remaining) | < 25 | < 25 | F (F = >75-100% remaining) | COc1ccccc1-c1nc(-c2ccc3c(c2)CN(C2CCC(=O)NC2=O)C3=O)cn1C (stereo not drawn) [Example 673]
32 | C (C = 0-10% remaining) | < 25 | < 25 | D (D = >10- 25% remaining) | Cn1cc(-c2ccc3c(c2)CN(C2CCC(=O)NC2=O)C3=O)nc1-c1cccc(OCc2ccccc2)c1 (stereo not drawn) [Example 681]
33 | C (C = 0-10% remaining) | < 25 | < 25 | E (E = >25-75% remaining) | CCc1nc(-c2ccc3c(c2)CN(C2CCC(=O)NC2=O)C3=O)c(-c2ccccc2)o1 (stereo not drawn) [Example 720, 3-(5-(2-ethyl-5-phenyloxazol-4-yl)-1-oxoisoindolin-2-yl) piperidine-2,6-dione]
